Data on eight compounds can be found in US20070042937A1, “Inhibitors of 2-oxoglutarate dioxygenase as gamma globin inducers” (FibroGen, Inc., priority 2003, published 2007).

Experiment [1] has as its system CD34+ human bone marrow progenitor cells. As to conditions: for increase in HbF expression: CD34+ progenitor cell cultures, single assay, single cultures, FIG. 6; for increase in HbF synthesis compared to vehicle controls: added during EPO-dependent Phase II, FIG. 3A; for increase in HbF expression over untreated controls: added to both Phases I and II; for increase in HbF expression as assessed by MFI: compound alone, only during Phase II.

For experiment [2] the test system is unchanged. As to conditions: FIG. 4B; for total hemoglobin in the cultures: compound alone.
Experiment [3] has the same test system. Put plainly: Percent HbF-positive cells (F-cells) in CD34+ bone marrow progenitor cell cultures by flow cytometry. As to conditions: for increase in F-cells over untreated cultures / increase in F-cells over untreated cultures, in combination with HU: CD34+ cells, only during Phase II, FIG. 3B; for increase in F-cells over untreated cultures, in combination with HU: in combination with 5 μM HU. (Flow cytometry measures light scatter and fluorescence of single cells or particles in a stream.)

The subject of another experiment is γ-globin. The experiment is described as follows: γ-globin mRNA expression in K562 cells by quantitative PCR, normalized to 18S rRNA. It counts as cell-based, human. As to conditions: FIG. 1A. How it is done: For studies utilizing the human erythroleukemia K562 cell line (ATCC), cells were grown and cultured in complete medium (RPMI 1640, 10% fetal calf serum (FCS), 100 U/ml penicillin and 0.1 mg/ml streptomycin) in a humidified incubator at 37° C., 95% air, 5% CO2-HPIs were titrated into duplicate cultures at dosage levels spanning more than 100-fold differences in concentration, and incubated from 24 to 96 hours prior to harvesting and quantitation of F-cells and HbF levels by flow cytometry.
Each PCR run included a standard curve and water blank. In addition, a melt curve was run after completion of each PCR run to assess the specificity of the amplification. γ-globin gene expression was normalized relative to the expression level of 18S ribosomal RNA for each sample.

The next experiment has as its system K562 cells. As to conditions: 4 days, 20 μM, FIG. 2.

Like-named read-outs stand apart in the source and are kept apart here.

`CC(C)Oc1ccc2nc(C(=O)NCC(=O)O)c(O)cc2c1` [HPI-5, [(3-Hydroxy-6-isopropoxy-quinoline-2-carbonyl)-amino]-acetic acid]: the “increase in HbF expression” value in experiment [1] amounted to 75%.
Regarding `NC(=O)NO` [HU, hydroxyurea, reference compound], the “total hemoglobin in the cultures” value in experiment [2] is recorded as “increases”. In experiment [1] (CD34+ cells), the “increase in HbF synthesis compared to vehicle controls” value is given as 50%. Further, the F-cells entry in experiment [3] (CD34+ progenitor cells, compound alone, FIG. 4A) is given as “increases”.
Turning to `COc1ccc2c(O)c(C(=O)NCC(=O)O)nc(Cl)c2c1` [HPI-3, [(1-Chloro-4-hydroxy-7-methoxy-isoquinoline-3-carbonyl)-amino]-acetic acid], the “increase in HbF expression” value in experiment [1] is recorded as “about 10%”.
For `O=C(O)CNC(=O)c1ncc2cc(Sc3ccccc3)ccc2c1O` [HPI-6, [(4-Hydroxy-7-phenylsulfanyl-isoquinoline-3-carbonyl)-amino}-acetic acid], the “expression of the gene encoding γ-globin” value with γ-globin (3 days, 0, 3, 4.5, 10, 12.5 or 20 μM) was “increased in a dose-dependant manner”. The “γ-globin expression with further addition of hydroxyurea” value in the experiment with γ-globin (3 days, plus 100 μM HU, especially at lower concentrations) is listed as “augmented”.
In the case of `O=C(O)CNC(=O)c1nc(Cl)c2ccccc2c1O` [HPI-1, N-((1-chloro-4-hydroxy-isoquinoline-3-carbonyl)-amino)-acetic acid], the “total hemoglobin, co-treatment with HU or butyrate” value in experiment [2] (co-treatment with HPI-1 and HU or butyrate) was “no significant change”. For the same compound, the “total hemoglobin in the cultures” value in experiment [2] is reported as “did not cause a general increase”. In addition, in the experiment with K562 cells, the “increase in HbF synthesis compared to negative control cultures” value is given as 23-52%. The “HbF expression (MFI for HbF) when used together with HU” value in experiment [1] (20 μM plus HU, FIG. 5B) was “additive”. For the same compound, the “HbF expression as measured by MFI for HbF, compared to vehicle control (DMSO)” value in experiment [1] (20 μM, triplicate, FIG. 5B) is “increased”. For the same compound, the “increase in HbF expression over untreated controls” value in experiment [1] (CD34+ cells, 10 μM) amounted to 12%; in experiment [1] (CD34+ cells, 20 μM) it was 47%. For the same compound, the “increase in HbF expression as assessed by MFI” value in experiment [1] (CD34+ cells) is given as 36%. Also, the “HbF expression (percent F-cells) when used together with HU” value in experiment [3] (20 μM plus HU, FIG. 5A) is “additive”. In addition, the “HbF expression as measured by percent F-cells, compared to vehicle control (DMSO)” value in experiment [3] (20 μM, triplicate, FIG. 5A) is listed as “increased”. The “increase in F-cells over untreated cultures” value in experiment [3] (compound alone) was 29%. The “increase in F-cells over untreated cultures, in combination with HU” value in experiment [3] is reported as 58%. Also, in experiment [3] (CD34+ progenitor cells, 20 μM, FIG. 4A), the “increase in F-cells” value came out at 50%. In experiment [3] (CD34+ progenitor cells, co-treatment with HPI-1 and HU or butyrate, FIG. 4A), the “F-cells, co-treatment with HU or butyrate” value is given as “additive increase”.
With `CCCC(=O)O` [butyrate, reference compound], the “increase in HbF synthesis compared to vehicle controls” value in experiment [1] (CD34+ cells) is on record as 85%.
Regarding `O=C(O)CNC(=O)c1nc2cc(Cl)ccc2cc1O` [HPI-4, [(7-Chloro-3-hydroxy-quinoline-2-carbonyl)-amino]-acetic acid], the “increase in HbF expression” value in experiment [1] was found to be 56%.
As for `O=C(O)CNC(=O)c1ncc2cc(Br)ccc2c1O` [HPI-2, [(7-Bromo-4-hydroxy-isoquinoline-3-carbonyl)-amino]-acetic acid], in the experiment with K562 cells, the “increase in HbF synthesis compared to negative control cultures” value came to 77%. Moreover, the “increase in HbF expression over controls” value in experiment [1] (CD34+ cells, added during both phases, concentration not given) was determined as 40%. The “increase in HbF expression as assessed by MFI” value in experiment [1] (CD34+ cells) amounted to 5%. Besides, the “increase in HbF expression” value in experiment [1] is “about 10%”. Further, the “increase in F-cells over untreated cultures” value in experiment [3] (compound alone) is listed as 12%. In experiment [3], the “increase in F-cells over untreated cultures, in combination with HU” value was determined as 29%.
